This note sets out measurements from patent publication US20240270821A1, “GIP/GLP1/GCG TRI-RECEPTOR AGONISTS AND USES THEREOF” (priority 2023, published 2024).

Read-outs that look alike come from different tables or passages of the source. Starred links: 1 amine or outer side, 2 acyl side, 3 side chain; linkers in the order of their positions; H or OH if unused. Non-standard residues stand in square brackets, D forms with d. Residues, ends and D or L forms follow the SMILES beside them. Groups on a side chain read outwards from the residue. No end group written: not given here. *: point of attachment. C18 diacid = O=C(O)CCCCCCCCCCCCCCCCC(=O)*; αMePhe(2-F) = C[C@](N)(Cc1ccccc1F)C(=O)O; γGlu = O=C(O)[C@H](CCC(=O)[*:2])N[*:1]; αMe4Pal = C[C@](N)(Cc1ccncc1)C(=O)O; αMeY = C[C@](N)(Cc1ccc(O)cc1)C(=O)O; 4Pal = N[C@@H](Cc1ccncc1)C(=O)O; αMeL = CC(C)C[C@](C)(N)C(=O)O; αMeS = C[C@](N)(CO)C(=O)O; Orn = NCCC[C@H](N)C(=O)O; AEEA = NCCOCCOCC(=O)O; Aib = CC(C)(N)C(=O)O

Format in all cases: cell-based
The target in experiment [1] is T1, hGLP-1R (Homo sapiens, UniProt P43220). Briefly: Functional cAMP activation in the presence of 0.1% casein (no HSA). The following applies: read-out: Relative cAMP EC50, hGLP-1R.
In experiment [2] the target is T2, hGIPR (Homo sapiens, UniProt P48546).
T2 sequence (P48546 22-466): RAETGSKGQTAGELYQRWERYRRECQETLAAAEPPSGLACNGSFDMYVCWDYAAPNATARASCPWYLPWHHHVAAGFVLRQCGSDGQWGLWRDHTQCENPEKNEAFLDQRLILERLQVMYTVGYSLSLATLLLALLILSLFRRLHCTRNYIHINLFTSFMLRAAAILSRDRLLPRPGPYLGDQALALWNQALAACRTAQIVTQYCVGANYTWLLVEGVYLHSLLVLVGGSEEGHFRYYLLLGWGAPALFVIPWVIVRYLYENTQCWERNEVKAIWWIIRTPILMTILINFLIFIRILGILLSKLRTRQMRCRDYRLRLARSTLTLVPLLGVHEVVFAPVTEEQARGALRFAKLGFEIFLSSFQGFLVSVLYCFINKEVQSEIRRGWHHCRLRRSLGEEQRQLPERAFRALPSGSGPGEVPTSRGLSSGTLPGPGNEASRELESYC
Briefly: Functional cAMP activity in the presence of 1% HSA. To be noted: read-out: cAMP Rel EC50, hGIPR.

Experiment [3] deals with T1, hGLP-1R. Briefly: Functional cAMP activity in the presence of 1% HSA. To be noted: read-out: cAMP Rel EC50, hGLP-1R.
For experiment [4], the target named is T2, hGIPR. Briefly: Functional cAMP activation in the presence of 0.1% casein (no HSA). The following applies: read-out: Relative cAMP EC50, hGIPR.
In another experiment the target is human GcgR (Homo sapiens, UniProt P47871). Briefly: Functional cAMP activity in the presence of 1% HSA. To be noted: read-out: cAMP Rel EC50, hGcgR.
A further experiment addresses hGcgR (Homo sapiens, UniProt P47871). Briefly: Functional cAMP activation in the presence of 0.1% casein (no HSA). To be noted: read-out: Relative cAMP EC50, hGcgR.
[5] abbreviates: in the presence of 0.1% casein (no HSA), geometric mean.

The EC50 is the midpoint of the concentration-response curve.
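Wherever Relative cAMP EC50, hGIPR is given: intracellular cAMP rise after 30 min at 37 °C read by HTRF against a standard curve, scaled between buffer alone (0%) and top control ligand concentration (100%), four-parameter fit.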
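Wherever Relative cAMP EC50, hGLP-1R is given: intracellular cAMP rise after 30 min at 37 °C read by HTRF, normalized between buffer only (0%) and maximal control ligand (100%), four-parameter variable-slope fit.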
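Wherever Relative cAMP EC50, hGcgR is given: intracellular cAMP rise after 30 min at 37 °C, read by HTRF against a cAMP standard curve, scaled from buffer only (0%) to maximal control ligand response (100%).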

T1 sequence (P43220 24-463): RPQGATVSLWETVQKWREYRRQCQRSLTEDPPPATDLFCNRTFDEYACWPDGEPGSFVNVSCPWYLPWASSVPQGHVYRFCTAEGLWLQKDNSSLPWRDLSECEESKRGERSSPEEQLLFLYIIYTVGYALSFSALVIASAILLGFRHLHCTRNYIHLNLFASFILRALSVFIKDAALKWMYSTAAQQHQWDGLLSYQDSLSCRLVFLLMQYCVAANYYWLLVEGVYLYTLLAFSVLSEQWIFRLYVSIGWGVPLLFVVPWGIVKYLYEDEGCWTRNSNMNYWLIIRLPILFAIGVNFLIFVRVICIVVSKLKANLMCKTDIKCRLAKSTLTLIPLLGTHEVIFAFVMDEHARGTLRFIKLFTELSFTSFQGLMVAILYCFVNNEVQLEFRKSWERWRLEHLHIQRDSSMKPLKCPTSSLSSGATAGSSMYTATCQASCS
Sequence of human GcgR (P47871 26-477): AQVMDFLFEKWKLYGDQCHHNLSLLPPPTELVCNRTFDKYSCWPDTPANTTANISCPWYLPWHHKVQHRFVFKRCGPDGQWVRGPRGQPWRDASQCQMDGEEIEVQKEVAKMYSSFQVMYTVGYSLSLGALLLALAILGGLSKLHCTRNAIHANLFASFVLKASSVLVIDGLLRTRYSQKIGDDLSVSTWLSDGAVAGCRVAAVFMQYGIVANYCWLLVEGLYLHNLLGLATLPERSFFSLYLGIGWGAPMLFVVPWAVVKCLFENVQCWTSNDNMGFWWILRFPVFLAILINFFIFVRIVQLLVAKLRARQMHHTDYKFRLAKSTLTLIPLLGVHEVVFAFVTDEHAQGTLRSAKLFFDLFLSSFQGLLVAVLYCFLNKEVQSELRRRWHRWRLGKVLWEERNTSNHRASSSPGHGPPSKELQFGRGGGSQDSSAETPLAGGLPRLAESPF
Sequence of hGcgR (P47871 26-477): as above

As for `CC[C@H](C)[C@H](NC(=O)[C@H](CC(C)C)NC(=O)[C@H](Cc1ccc(O)cc1)NC(=O)[C@H](CCC(=O)O)NC(=O)[C@@H](NC(=O)[C@H](Cc1ccccc1)NC(=O)[C@H](C)NC(=O)[C@](C)(Cc1ccncc1)NC(=O)[C@H](CCC(N)=O)NC(=O)[C@H](C)NC(=O)[C@H](CCCCNC(=O)CC[C@H](NC(=O)CC[C@H](NC(=O)CCCCCCCCCCCCCCCCC(=O)O)C(=O)O)C(=O)O)NC(=O)[C@H](CCCCN)NC(=O)[C@H](CC(=O)O)NC(=O)[C@H](CC(C)C)NC(=O)[C@](C)(CC(C)C)NC(=O)[C@H](CCC(N)=O)NC(=O)[C@H](CO)NC(=O)[C@H](Cc1ccncc1)NC(=O)[C@H](CC(=O)O)NC(=O)[C@H](CO)NC(=O)[C@@H](NC(=O)[C@H](Cc1ccccc1)NC(=O)[C@@H](NC(=O)CNC(=O)[C@H](CCC(N)=O)NC(=O)C(C)(C)NC(=O)[C@@H](N)Cc1ccc(O)cc1)[C@@H](C)O)[C@@H](C)O)[C@@H](C)CC)C(=O)N[C@@H](C)C(=O)NCC(=O)NCC(=O)N1CCC[C@H]1C(=O)N[C@@H](CO)C(=O)N[C@@H](CO)C(=O)NCC(=O)N[C@@H](C)C(=O)N1CCC[C@H]1C(=O)N1CCC[C@H]1C(=O)N1CCC[C@H]1C(=O)N[C@@H](CO)C(=O)NCC(=O)N[C@@H](CO)C(N)=O` [Example 870], the EC50 was 0.962 nM on hGLP-1R [1] (setting [5]); 7.29 nM on hGIPR [2]; 71.2 nM on hGLP-1R [3]; 0.0698 nM at hGIPR [4] (setting [5]); 736 nM at human GcgR; 4.4 nM at hGcgR (setting [5]).
On to “H-Y[Aib]QGT[αMePhe(2-F)]TSD[4Pal]SILLD[Orn]K([γGlu-γGlu-C18 diacid])AQ[Aib]AFIEYLQEGGPSSGAPPPSGTEE-NH2 [Example 581]”, for which the EC50 amounted to 0.406 nM at hGLP-1R [1]; 7.29 nM on hGIPR [2]; 65.9 nM on hGLP-1R [3]; 0.0812 nM on hGIPR [4]; 1500 nM at human GcgR; 8.18 nM on hGcgR.
On to “H-Y[Aib]QGT[αMePhe(2-F)]TSD[4Pal][αMeS]I[αMeL]LD[Orn]K([AEEA-γGlu-C18 diacid])AA[Aib]EFI[dE][αMeY]LIEGGPSSGAPPPSG[dE]-NH2 [Example 721]”, for which the concentration for a half-maximal effect (EC50) at hGLP-1R [1] turned out to be 0.233 nM; at hGIPR [2], 1.19 nM; on hGLP-1R [3], 27.1 nM; at hGIPR [4], 0.00774 nM; at human GcgR it was 183 nM; on hGcgR it was 1.78 nM.
Consider “H-Y[Aib]QGTFTSD[4Pal]SR[αMeL]LDKK([AEEA-γGlu-C18 diacid])AQ[αMe4Pal]AFIE[αMe4Pal]LIEGGPSSGAPPPSGSEE-NH2 [Example 956]”, for which the EC50 at hGLP-1R [1] (setting [5]) was determined as 4.83 nM; at hGIPR [2], 32.1 nM; at hGLP-1R [3], 643 nM; at hGIPR [4] (setting [5]), 0.26 nM; on human GcgR, 406 nM; on hGcgR (setting [5]), 2.17 nM.
Regarding “H-Y[Aib]QGTFTSD[4Pal]SQ[αMeL]LDKK([AEEA-γGlu-γGlu-C18 diacid])AQ[αMe4Pal]AFIEYLIE[Aib]GPSSGAPPPSGS-NH2 [Example 860]”, the EC50 on hGLP-1R [1] (setting [5]) turned out to be 3.95 nM; on hGIPR [2], 19.2 nM; on hGLP-1R [3], 414 nM; on hGIPR [4] (setting [5]) it was 0.202 nM; at human GcgR, 565 nM; on hGcgR (setting [5]) it was 11 nM.
As for “H-Y[Aib]QGTFTSD[4Pal]S[Orn][αMeL]LDKK([γGlu-γGlu-C18 diacid])AQ[αMe4Pal]AFIEYLIAGGESSGAPPPSGSEE-NH2 [Example 964]”, the half-maximal effective concentration (EC50) at hGLP-1R [1] (setting [5]) stood at 2.67 nM; on hGIPR [2], 21.4 nM; at hGLP-1R [3], 267 nM; on hGIPR [4] (setting [5]) it was 0.288 nM; on human GcgR it was 324 nM; at hGcgR (setting [5]), 2.75 nM.
In the case of “H-Y[Aib]QGTFTSD[4Pal]S[Orn][αMeL]LDKK([γGlu-γGlu-C18 diacid])AQ[αMe4Pal]AFIE[αMe4Pal]LIEGGPSSGAPPPSGSEE-NH2 [Example 958]”, the concentration giving a half-maximal response (EC50) worked out at 9.51 nM on hGLP-1R [1] (setting [5]); 27.1 nM on hGIPR [2]; 850 nM on hGLP-1R [3]; 0.343 nM at hGIPR [4] (setting [5]); 340 nM at human GcgR; 3.17 nM at hGcgR (setting [5]).
For “H-Y[Aib]QGTFTSDFS[Orn][αMeL]LDKK([AEEA-γGlu-C18 diacid])AQ[αMe4Pal]EFIEYLIE[Aib]GPSSGAPPPSGS-NH2 [Example 879]”, the EC50 at hGLP-1R [1] (setting [5]) came out at 4 nM; at hGIPR [2], 20.1 nM; on hGLP-1R [3], 591 nM; on hGIPR [4] (setting [5]), 0.169 nM; at human GcgR, 329 nM; on hGcgR (setting [5]) it was 2.16 nM.
Regarding “H-Y[Aib]QGTFTSD[4Pal]SQ[αMeL]LDKK([dE-γGlu-C18 diacid])AQ[αMe4Pal]AFIEYLIE[Aib]GPSSGAPPPSGS-NH2 [Example 920]”, the EC50 on hGLP-1R [1] (setting [5]) was determined as 2.28 nM; on hGIPR [2], 9.05 nM; on hGLP-1R [3], 322 nM; on hGIPR [4] (setting [5]), 0.0905 nM; on human GcgR, 1090 nM; at hGcgR (setting [5]) it was 4.61 nM.
Turning to “Y[Aib]QGTFTSD[4Pal]SQ[αMeL]LDKK([γGlu-γGlu-C18 diacid])AQ[αMe4Pal]AFIEYLIE[Aib]GPSSGAPPPSGS-NH2 [Example 858]”, the EC50 turned out to be 1.83 nM at hGLP-1R [1] (setting [5]); 13.1 nM at hGIPR [2]; 258 nM on hGLP-1R [3]; 0.0995 nM on hGIPR [4] (setting [5]); 678 nM at human GcgR; 3.44 nM at hGcgR (setting [5]).
On to `CC[C@H](C)[C@H](NC(=O)[C@H](CCCN)NC(=O)[C@H](CC(=O)O)NC(=O)[C@H](CC(C)C)NC(=O)[C@](C)(CC(C)C)NC(=O)[C@@H](NC(=O)[C@](C)(CO)NC(=O)[C@H](Cc1ccncc1)NC(=O)[C@H](CC(=O)O)NC(=O)[C@H](CO)NC(=O)[C@@H](NC(=O)[C@](C)(Cc1ccccc1F)NC(=O)[C@@H](NC(=O)CNC(=O)[C@H](CCC(N)=O)NC(=O)C(C)(C)NC(=O)[C@@H](N)Cc1ccc(O)cc1)[C@@H](C)O)[C@@H](C)O)[C@@H](C)CC)C(=O)N[C@@H](C)C(=O)N[C@@H](CCC(N)=O)C(=O)NC(C)(C)C(=O)N[C@@H](CCCN)C(=O)N[C@@H](Cc1ccccc1)C(=O)N[C@H](C(=O)N[C@H](CCC(=O)O)C(=O)N[C@@](C)(Cc1ccc(O)cc1)C(=O)N[C@@H](CC(C)C)C(=O)N[C@H](C(=O)N[C@@H](CCCCNC(=O)COCCOCCNC(=O)CC[C@H](NC(=O)CCCCCCCCCCCCCCCCC(=O)O)C(=O)O)C(=O)NCC(=O)NCC(=O)N1CCC[C@H]1C(=O)N[C@@H](CO)C(=O)N[C@@H](CO)C(=O)NCC(=O)N[C@@H](CCC(=O)O)C(=O)N1CCC[C@H]1C(=O)N1CCC[C@H]1C(=O)N1CCC[C@H]1C(=O)N[C@@H](CCC(=O)O)C(N)=O)[C@@H](C)CC)[C@@H](C)CC` [Example 444] (H-Y[Aib]QGT[αMePhe(2-F)]TSD[4Pal][αMeS]I[αMeL]LD[Orn]IAQ[Aib][Orn]FI[dE][αMeY]LIK([AEEA-γGlu-C18 diacid])GGPSSGEPPPE-NH2), for which the EC50 on hGLP-1R [1] is 0.352 nM; at hGIPR [2], 1.74 nM; at hGLP-1R [3], 54.6 nM; on hGIPR [4], 0.0106 nM; on human GcgR, 1280 nM; at hGcgR, 6.49 nM.
Turning to “H-Y[Aib]QGT[αMePhe(2-F)]TSD[4Pal]SILLDKK([γGlu-γGlu-C18 diacid])AQ[Aib]AFIE[αMeY]LEEGGPSSGAPPPSGEGE-NH2 [Example 667]”, the EC50 on hGLP-1R [1] came to 0.42 nM; at hGIPR [2], 1.46 nM; at hGLP-1R [3], 33 nM; on hGIPR [4], 0.0217 nM; at human GcgR it was 215 nM; at hGcgR, 2.34 nM.
Regarding “H-Y[Aib]QGTFTSD[4Pal]S[Orn][αMeL]LDKK([γGlu-γGlu-C18 diacid])AQ[αMe4Pal]AFIEYLIE[Aib]GPSSGAPPPSGS-NH2 [Example 865]”, the EC50 on hGLP-1R [1] (setting [5]) was 3.02 nM; on hGIPR [2] it was 10.8 nM; on hGLP-1R [3] it was 351 nM; at hGIPR [4] (setting [5]) it was 0.0797 nM; on human GcgR, 248 nM; on hGcgR (setting [5]) it was 1.48 nM.
For the compound “H-Y[Aib]QGTFTSD[4Pal]S[Orn][αMeL]LD[Orn]K([Glu-γGlu-C18 diacid])AQ[Aib]AFIE[αMeY]LLEGGPSSGAPPPSGSEE-NH2 [Example 1066]”, the EC50 at hGLP-1R [1] (setting [5]) came to 9.8 nM; at hGIPR [2], 69.9 nM; on hGLP-1R [3], 1850 nM; at hGIPR [4] (setting [5]) it was 0.446 nM; on human GcgR, 4260 nM; at hGcgR (setting [5]), 25.4 nM.
